Measurements taken from article PMC10342075, “Blunting Neuroinflammation by Targeting the Immunoproteasome with Novel Amide Derivatives” (International Journal of Molecular Sciences, 2023).

Legend:
[1] = target: T1, β5c subunit of 20S proteasome (Homo sapiens, UniProt P28074); test: fluorogenic Suc-Leu-Leu-Val-Tyr-AMC hydrolysis (chymotrypsin-like activity) with purified human […] proteasome; assay type: biochemical
T1 construct: gene PSMB5; human 20S proteasome isolated from human erythrocytes; with 20S proteasome (other subunits)
T1 sequence (P28074 60-263): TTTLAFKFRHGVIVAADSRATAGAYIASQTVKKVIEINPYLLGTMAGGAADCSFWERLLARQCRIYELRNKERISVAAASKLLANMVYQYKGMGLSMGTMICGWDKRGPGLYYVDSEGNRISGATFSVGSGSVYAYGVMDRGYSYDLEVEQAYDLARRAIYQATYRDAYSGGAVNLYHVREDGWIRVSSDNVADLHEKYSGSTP

[2] = target: T2, β5i subunit of 20S immunoproteasome (LMP7) (Homo sapiens, UniProt P28062); test: fluorogenic Suc-Leu-Leu-Val-Tyr-AMC hydrolysis (chymotrypsin-like activity) with purified human […] immunoproteasome; assay type: biochemical
T2 construct: gene PSMB8; human 20S immunoproteasome isolated from human spleen; with 20S immunoproteasome (other subunits)
T2 sequence (P28062 73-276): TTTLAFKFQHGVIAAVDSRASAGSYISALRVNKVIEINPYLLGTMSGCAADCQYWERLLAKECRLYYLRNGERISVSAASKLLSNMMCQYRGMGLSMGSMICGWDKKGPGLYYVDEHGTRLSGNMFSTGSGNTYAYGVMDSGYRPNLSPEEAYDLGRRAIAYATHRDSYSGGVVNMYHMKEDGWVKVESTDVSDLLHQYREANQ

| IC50 [1] | IC50 [2] | Compound |
| --- | --- | --- |
| 6.9 ± 0.18 µM | 16.5 ± 0.35 µM | O=C(NCc1ccccc1)[C@H](Cc1ccccc1)n1ccccc1=O [KJ9] |
| – | 7.61 ± 0.76 µM | O=C(NCCc1ccccc1)[C@H](CCc1ccccc1)n1ccccc1=O [KJ3] |
